# Experimental data reported in patent US8354512B2, “Ligand and metal complex” (National Chiao Tung University, priority 2009, dated 2013).
# Like-named read-outs stand apart in the source and are kept apart here.
# Assays:
# HSA = HSA (Homo sapiens, UniProt P02768); conditions: literature values; cited from earlier work
# [1] = Water exchange rate and molecular rotational correlation time by 17O-NMR at 9.4 T; format: physicochemical; conditions: 298 K
# Source text: According to the disclosure of Chem. Rev., 1999, 99, 2293-2352, the relaxivity of the metal complex is affected by the hydration number q and the correlation time τc. The correlation time τc depends on three parameters: (1) molecular rotational correlation time (τR); (2) Electron longitudinal and transverse spin relaxation time (T1e, T2e); and (3) Water residence lifetime (τm) or Water exchange rate (kex), τm^−1=kex. Since Bz-CB-TTDA and CB-TTDA have the same hydration number, comparison between Bz-CB-TTDA and CB-TTDA in relaxivity can be determined by the aforesaid parameters, i.e., the higher the parameters, the higher will be the relaxivity.
# Electron longitudinal and transverse spin relaxation time (T1e, T2e) of each test sample of the metal complexes was measured by using ^17O-NMR in a magnetic field of 9.4 T. The water exchange rate at 298 K (Kex^298) and the molecular rotational correlation time at 298 K (τR^298) of each test sample were determined by using three plots of “T1 versus temperature”, “T2 versus temperature” and “chemical shift versus temperature”.
# [2] = Kinetic stability in PBS containing Zn2+; format: physicochemical; set-up: unit not given here; conditions: 2.5 mM complex, 2.5 mM ZnCl2, PBS pH 7.4, 37±0.1° C., three days, NMR 20 MHz
# Description: Kinetic stability is evaluated by testing the stability of the metal complex in an environment containing a poisonous metal ion Zn^2+. The stability is defined as R1^p (t)/R1p (0), in which R1^P (t)=1/T1 (t), T1 is the relaxivity. The higher the R1^P (t)/R1p (0), the higher will be the stability.
# 2.5 mM of each of [Gd(Bz-CB-TTDA)]^2−−, [Gd(CB-TTDA)]^2− and [Gd(DTPA)]^2− was placed in a phosphate buffer saline (PBS, pH=7.4), followed by adding 2.5 mM of ZnCl2 to obtain a sample. The sample was subjected to reaction at 37±0.1° C. for three days (t=3), after which the relaxivity T1(t) of the sample was determined by using NMR (20 MHz).
# [3] = cited from earlier work
# Sequence of HSA (P02768 25-609): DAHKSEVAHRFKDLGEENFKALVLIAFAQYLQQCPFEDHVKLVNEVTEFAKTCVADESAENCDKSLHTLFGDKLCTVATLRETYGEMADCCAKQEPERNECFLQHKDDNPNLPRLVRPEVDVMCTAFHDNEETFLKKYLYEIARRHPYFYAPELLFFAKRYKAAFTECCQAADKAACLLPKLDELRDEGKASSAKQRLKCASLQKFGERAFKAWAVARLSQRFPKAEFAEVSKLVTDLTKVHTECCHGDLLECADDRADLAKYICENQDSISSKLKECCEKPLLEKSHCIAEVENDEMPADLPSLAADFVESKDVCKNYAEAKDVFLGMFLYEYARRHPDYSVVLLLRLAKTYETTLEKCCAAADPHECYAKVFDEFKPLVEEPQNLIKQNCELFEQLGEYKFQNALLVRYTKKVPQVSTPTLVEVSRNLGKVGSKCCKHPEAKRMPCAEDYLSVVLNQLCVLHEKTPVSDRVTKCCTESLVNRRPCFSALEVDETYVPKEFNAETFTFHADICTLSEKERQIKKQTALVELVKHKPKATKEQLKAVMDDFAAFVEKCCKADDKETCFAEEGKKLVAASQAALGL
τR^298 molecular rotational correlation time [1],R1^p (t)/R1^p (0) [2],Structure (SMILES),γ1^b bound relaxivity (HSA),kex^298 water exchange rate [1],"γ1 relaxivity ([3]; pH 7.6 ± 0.1, Am. J. Roentgenol., 1984, 142, 619-624)","γ1 relaxivity ([3]; pH 7.5 ± 0.1, Inorg. Chem., 2005, 44, 382)"
,,O=C(O)CN(CCN(CC(=O)O)CC(=O)O)CCN(CC(=O)O)C(COCc1ccccc1)C(=O)O (stereo not drawn) [[Gd(BOPTA)]^2−],33.0^a mM^−1s^−1,,,
103 ps,49.79,O=C([O-])CN(CCN(CC(=O)[O-])CC(=O)[O-])CCN(CC(=O)[O-])CC(=O)[O-].[Gd+3] [[Gd(DTPA)]^2−],,4.1 10^6 s^−1,3.89 ± 0.03^a mM^−1s^−1,
,,CCOc1ccc(C[C@@H](C(=O)O)N(CCN(CCN(CC(=O)O)CC(=O)O)CC(=O)O)CC(=O)O)cc1 [[Gd(S)-EOB-DTPA]^2−],44.1^a mM^−1s^−1,,,
104 ± 12.0 ps,,O=C([O-])CN(CCCN(CC(=O)[O-])CC(=O)[O-])CCN(CC(=O)[O-])CC(=O)[O-].[Gd+3] [[Gd(TTDA)]^2−],,146 ± 17.0 10^6 s^−1,,3.85 ± 0.03^a mM^−1s^−1
